According to patent US20090099343A1 (priority 2005, published 2009):

Experiments:
PrP^Sc [1] = conditions: for binding to PrP^Sc compared among peptide reagents: pH 4
PrP^Sc [2] = target: PrP^Sc (Mus musculus, UniProt P04925)
PrP^Sc [3] = system: PrP^Sc
PrP^Sc [4] = system: PrP^Sc; remark: listed apart in the source

Sequence of PrP^Sc (Mus musculus, UniProt P04925) (P04925 23-230 limits assumed): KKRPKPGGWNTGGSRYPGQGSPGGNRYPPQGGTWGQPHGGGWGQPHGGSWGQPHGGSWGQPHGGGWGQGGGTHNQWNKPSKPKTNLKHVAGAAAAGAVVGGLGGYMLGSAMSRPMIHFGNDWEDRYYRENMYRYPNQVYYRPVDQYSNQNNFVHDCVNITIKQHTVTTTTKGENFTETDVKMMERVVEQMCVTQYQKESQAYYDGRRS

| Substance | pH of optimal binding to PrP^Sc (PrP^Sc [1]) | binding to PrP^Sc compared among peptide reagents (PrP^Sc [1]) | other results |
| --- | --- | --- | --- |
| (GGG)KKKKKKKK [SEQ ID NO:85] | 8 | bound equally well | – |
| (GGG)KKRPKPGG [SEQ ID NO:68] | 8 | bound equally well | binding to PrP^Sc in infected mouse brain homogenate (FIG. 4, lane 5) (PrP^Sc [2]): strong binding |
| (GGG)KKRPKPGGWNTGG [SEQ ID NO:67] | – | – | PrP^Sc eluted from peptide reagent (PrP^Sc [3]): eluted all; PrP^Sc dissociated from peptide reagent (PrP^Sc [4]): virtually all |
| (GGG)QWNKPSKPKTN [SEQ ID NO:14] | 8 | bound equally well | – |
| GGGQWNKPSK*KTN, wherein * is N-(cyclopropylmethyl)glycine [SEQ ID NO:111] | – | – | PrP^Sc dissociated from peptide reagent with NaCl (PrP^Sc [4]): little was dissociated; tightness of PrP^Sc binding to peptide reagent (PrP^Sc [4]): bound most tightly |
